Here are results for 4 compounds from US4229466A, “Sesquiterpene derivatives having anti-complementary activity” (Otsuka Pharmaceutical Co., Ltd., priority 1977, dated 1980).

For data set [1], the system named is Nephrotoxin-Type Nephritis. Briefly: Therapeutic effect on nephrotoxin-type nephritis (proteinuria). It counts as in vivo, male Wistar rats. The following applies: for amount of proteinurea, Average: average of 3 replications; for amount of proteinurea, Average / amount of proteinurea: 7 days; for amount of proteinurea: individual replication. An excerpt: Rat nephrotoxin ("NT" for brevity) was obtained as described below. Rat kidney cortex was homogenized with an equal quantity of physiological saline. The homogenized mixture was mixed with Freund's complete adjuvant (a product of Difco Company) in a volume ratio of 1:1. Two milliliters of the resulting mixture was intramuscularly injected into a rabbit (body weight 3,100 g) to immunize the rabbit. A month and a half later, blood was taken from the heart of the rabbit and serum was obtained. The resulting serum was inactivated at 56° C. for 30 minutes, then salted out with a 40% saturated aqueous solution of ammonium sulfate, and fractionated. The γ-globulin (IgG) fraction was collected to obtain NT.
The evaluation was carried out using male Wistar rats with a body weight of 150 to 160 g with three replications for each test compound. The test compound was intraperitoneally administered once every 24 hours for seven days. One hour after the administration of the test compound on the third day, the NT was applied. The NT was intravenously injected in an amount of 1 ml at a tail vein of each rat. Chlorophyllin (CP) was used as a comparison compound, and physiological saline solution was used as a control.
The proteinuria level (total amount excreted into the urine over a 24 hour period) was measured using turbidometry employing bovine serum albumin as a control by means of sulfosalicylic acid.

A further data set relates to Heymann-type Nephritis. The experiment in a line: Therapeutic effects on Heymann-type nephritis (proteinuria). The format is in vivo, male Wistar rats. Conditions: for amount of proteinurea, Average: average of 3 replications; for amount of proteinurea: individual replication. The protocol:
Male Wistar rats with a body weight of 180 to 200 g were used in the test. Rat kidney cortex was extracted, and homogenized with an equal quantity by volume of a physiological saline solution. The homogenate was centrifuged at 1500 G for 1 hour. The supernatant liquid was purified in accordance with the method of T. S. […] The resulting mixture was injected intraperitoneally into isologous rats in an amount of 0.5 ml per rat. […] (This period was about 6 to 8 weeks.) […] CP was used as a comparison compound, and physiological saline solution was used as a control. Three replications were conducted for each test compound.

Data set [2] is described as follows: Acute toxicity on intravenous administration to mice. The following applies: mouse, in vivo.
The subject of data set [3] is complement serum (guinea pig complement). Briefly: Anti-complement activity: 50% inhibition of hemolysis of sensitized erythrocytes. The format is cell-based. Conditions: Cavia porcellus, Erythrocyte, 1 h, 37° C., 60 minutes, guinea pig complement diluted 150 times, OD413, read-out: Anti-Complement Activity Value (50% hemolysis inhibitory activity value). On the procedure:
The anti-complement activity was measured and confirmed by the testing method described in Meneki Kagaku (Immuno-Chemistry), Yuichi Yamamura et al., Ed. pages 830-834, Asakura Shoten, Tokyo, Japan (1973). Specifically,a test tube was charged with 0.5 ml of an aqueous dispersion of each of the test compounds, 0.5 ml of sensitized erythrocytes (EA) containing 1×10^8 cells/ml, 1 ml of a 5-fold diluted solution of a Veronal buffer solution containing gelatin, Ca^++ and Mg^++ (GVB^++), and 0.5 ml of complement serum (guinea pig complement) diluted to 150 times with the GVB^++. The mixture was maintained hot at 37° C. for 60 minutes. Then, 5 ml of an ice-cold physiological saline solution was added thereto, and the mixture was centrifuged. […] The 50% hemolysis inhibitory activity value (γ/ml) measured by the above method is shown in Table 2 below for each test compound.

Where [4] appears, read: Day 1, 3 mg per rat i.p. once daily.
[5] abbreviates: Day 4, 3 mg per rat i.p. once daily.
Where [6] appears, read: Day 7, 3 mg per rat i.p. once daily.
The mark [7] stands for this setting: Day 10, 3 mg per rat i.p. once daily.
The mark [8] stands for this setting: Before Administration, group of 3 mg per rat i.p.
[9] abbreviates: Day 1, 3 mg per rat i.p. once a day, 7 days.
Setting [10] is: Day 4, 3 mg per rat i.p. once a day, 7 days.
[11] abbreviates: Day 7, 3 mg per rat i.p. once a day, 7 days.
[12] abbreviates: Day 14, 3 mg per rat i.p. once a day, 7 days.
Where [13] appears, read: Day 21, 3 mg per rat i.p. once a day, 7 days.
Setting [14] is: Day 1, 5 mg per rat i.p. once daily.
Where [15] appears, read: Day 4, 5 mg per rat i.p. once daily.
[16] abbreviates: Day 7, 5 mg per rat i.p. once daily.
Setting [17] is: Day 10, 5 mg per rat i.p. once daily.
Where [18] appears, read: Before Administration, group of 5 mg per rat i.p.
The mark [19] stands for this setting: Day 1, 5 mg per rat i.p. once a day, 7 days.
The mark [20] stands for this setting: Day 4, 5 mg per rat i.p. once a day, 7 days.
Setting [21] is: Day 7, 5 mg per rat i.p. once a day, 7 days.
[22] abbreviates: Day 14, 5 mg per rat i.p. once a day, 7 days.
The mark [23] stands for this setting: Day 21, 5 mg per rat i.p. once a day, 7 days.

Where “and” joins values, the source holds several entries; their conditions need not be identical. Identical values can stand only once.

The LD50 is the dose expected to kill half of the subjects tested. Consider `CC1CCC2C(C)(C)C(O)C(O)CC2(C)C12Cc1c(O)cc(C=O)c(C=O)c1O2` (stereo not shown) [(1), 6,7-Dihydroxy-2,5,5,8a-tetramethyl-1,2,3,4,4a,5,6,7,8,8a-decahydronaphthalene-1-spiro-2'-(6',7'-diformyl-4'-hydroxy-2',3'-dihydrobenzofuran)], for which the “amount of proteinurea, Average” value is recorded as 2.8 mg/day in data set [1] (setting [4]); 1.6 mg/day in data set [1] (setting [5]); 1.2 mg/day in data set [1] (setting [6]); 8 mg/day in data set [1] (setting [7]); 116 mg/day in the data set with Heymann-type Nephritis (setting [8]); 111 mg/day in the data set on Heymann-type Nephritis (setting [9]). Moreover, the “amount of proteinurea, Average” value in the data set with Heymann-type Nephritis (setting [10]) is recorded as 61 mg/day; with Heymann-type Nephritis (setting [11]), 26 mg/day; in the data set on Heymann-type Nephritis (setting [12]), 11 mg/day; with Heymann-type Nephritis (setting [13]), 10 mg/day. Besides, the amount of proteinurea in data set [1] (setting [4]) was 2.5 mg/day and 4.3 mg/day and 1.7 mg/day; in data set [1] (setting [5]), 1.5 mg/day and 2.1 mg/day and 1.1 mg/day; in data set [1] (setting [6]) it was 0.8 mg/day and 1.8 mg/day and 0.9 mg/day; in data set [1] (setting [7]) it was 8 mg/day and 10 mg/day and 7 mg/day; with Heymann-type Nephritis (setting [8]), 95 mg/day and 132 mg/day and 121 mg/day; in the data set with Heymann-type Nephritis (setting [9]), 90 mg/day and 125 mg/day and 120 mg/day. Also, the amount of proteinurea with Heymann-type Nephritis (setting [10]) was 47 mg/day and 65 mg/day and 70 mg/day; in the data set with Heymann-type Nephritis (setting [11]), 17 mg/day and 35 mg/day and 27 mg/day; in the data set with Heymann-type Nephritis (setting [12]), 9 mg/day and 15 mg/day and 10 mg/day; in the data set with Heymann-type Nephritis (setting [13]) it was 10 mg/day and 12 mg/day and 9 mg/day. Further, the LD50 in data set [2] came to 40 mg/kg. Further, the IC50 in data set [3] was 10 µg/mL.
Take `CC1CCC2C(C)(C)C(O)C(O)CC2(C)C12Cc1c(O)cc(C=C(C#N)C(=O)O)c(C=C(C#N)C(=O)O)c1O2` (stereo not shown) [(6), 6,7-Dihydroxy-2,5,5,8a-tetramethyl-1,2,3,4,4a,5,6,7,8,8a-decahydronaphthalene-1-spiro-2'-[6',7'-di-(2-cyano-2-carboxyvinyl)-4'-hydroxy-2',3'-dihydrobenzofuran]]: the “amount of proteinurea, Average” value in data set [1] (setting [14]) is recorded as 2.5 mg/day; in data set [1] (setting [15]) it was 1.8 mg/day; in data set [1] (setting [16]), 1.0 mg/day; in data set [1] (setting [17]), 10 mg/day; in the data set with Heymann-type Nephritis (setting [18]), 121 mg/day; in the data set with Heymann-type Nephritis (setting [19]), 116 mg/day. The “amount of proteinurea, Average” value turned out to be 56 mg/day in the data set on Heymann-type Nephritis (setting [20]), 37 mg/day with Heymann-type Nephritis (setting [21]), 17 mg/day in the data set on Heymann-type Nephritis (setting [22]) and 12 mg/day in the data set with Heymann-type Nephritis (setting [23]). For the same compound, the amount of proteinurea in data set [1] (setting [14]) was 2.1 mg/day and 1.5 mg/day and 3.7 mg/day; in data set [1] (setting [15]) it was 1.9 mg/day and 1.2 mg/day and 2.3 mg/day; in data set [1] (setting [16]), 0.8 mg/day and 0.9 mg/day and 1.4 mg/day; in data set [1] (setting [17]), 13 mg/day and 7 mg/day and 9 mg/day; in the data set on Heymann-type Nephritis (setting [18]), 98 mg/day and 127 mg/day and 139 mg/day; in the data set on Heymann-type Nephritis (setting [19]) it was 113 mg/day and 121 mg/day and 116 mg/day. The amount of proteinurea with Heymann-type Nephritis (setting [20]) is 48 mg/day and 63 mg/day and 57 mg/day; with Heymann-type Nephritis (setting [21]) it was 36 mg/day and 47 mg/day and 29 mg/day; in the data set with Heymann-type Nephritis (setting [22]), 18 mg/day and 21 mg/day and 13 mg/day; in the data set on Heymann-type Nephritis (setting [23]) it was 8 mg/day and 15 mg/day and 14 mg/day. The LD50 in data set [2] stood at 250 mg/kg. Also, the IC50 in data set [3] is 40 µg/mL.
In the case of `CC1CCC2C(C)(C)C(O)C(O)CC2(C)C12Cc1c(O)cc(C=CC(=O)O)c(C=CC(=O)O)c1O2` (stereo not shown) [(7), 6,7-Dihydroxy-2,5,5,8a-tetramethyl-1,2,3,4,4a,5,6,7,8,8a-decahydronaphthalene-1-spiro-2'-[6',7'-di-(2-carboxyvinyl)-4'-hydroxy-2',3'-dihydrobenzofuran]], the “inhibition of the primary reaction of nephrotoxin-type nephritis” value in data set [1] (same test as Table 3, result in words) was “found to inhibit the primary reaction”. Besides, in the data set with Heymann-type Nephritis (test of Table 4, result in words), the “activity of curing Heymann-type nephritis” value was “a substantial activity of curing Heymann-type nephritis”. Further, in data set [2], the LD50 stood at 150 mg/kg. In addition, the IC50 in data set [3] was 80 µg/mL.
Consider `CC1CCC2C(C)(C)C(O)C(O)CC2(C)C12Cc1c(O)cc(C=O)c(C(=O)O)c1O2` (stereo not shown) [(67), Disodium 6,7-dihydroxy-2,5,5,8a-tetramethyl-1,2,3,4,4a,5,6,7,8,8a-decahydronaphthalene-1-spiro-2'-(7'carboxylate-6'-formyl-4'-oxide-2',3'-dihydrobenzofuran)], for which the “amount of proteinurea, Average” value in data set [1] (setting [14]) came to 3.0 mg/day; in data set [1] (setting [15]) it was 1.7 mg/day; in data set [1] (setting [16]) it was 1.1 mg/day; in data set [1] (setting [17]), 9 mg/day; in the data set with Heymann-type Nephritis (setting [18]) it was 118 mg/day; in the data set with Heymann-type Nephritis (setting [19]), 117 mg/day. The “amount of proteinurea, Average” value came out at 59 mg/day in the data set with Heymann-type Nephritis (setting [20]), 30 mg/day in the data set on Heymann-type Nephritis (setting [21]), 14 mg/day in the data set on Heymann-type Nephritis (setting [22]) and 11 mg/day with Heymann-type Nephritis (setting [23]). Further, the amount of proteinurea in data set [1] (setting [14]) was 2.7 mg/day and 4.1 mg/day and 2.3 mg/day; in data set [1] (setting [15]), 1.8 mg/day and 2.0 mg/day and 1.3 mg/day; in data set [1] (setting [16]), 0.7 mg/day and 1.5 mg/day and 1.2 mg/day; in data set [1] (setting [17]) it was 9 mg/day and 12 mg/day and 7 mg/day; in the data set on Heymann-type Nephritis (setting [18]) it was 117 mg/day and 132 mg/day and 105 mg/day; in the data set with Heymann-type Nephritis (setting [19]) it was 109 mg/day and 127 mg/day and 114 mg/day. In addition, the amount of proteinurea is 59 mg/day and 67 mg/day and 51 mg/day with Heymann-type Nephritis (setting [20]); 23 mg/day and 41 mg/day and 25 mg/day in the data set on Heymann-type Nephritis (setting [21]); 13 mg/day and 17 mg/day and 11 mg/day in the data set on Heymann-type Nephritis (setting [22]); 9 mg/day and 13 mg/day and 12 mg/day in the data set on Heymann-type Nephritis (setting [23]). The same compound yielded an LD50 in data set [2] of 500 mg/kg. In data set [3], the IC50 was found to be 60 µg/mL.
